Measured values taken from patent publication US4160829A, “Antibacterial 1,2,4-oxadiazolylacetamido cephalosporins” (Gist-Brocades N.V., priority 1972, dated 1979).
In brackets after ≈: the same amount, converted by molar mass. Like-named read-outs stand apart in the source and are kept apart here.

Legend:
[1] = test system: Bac.Subt.ATCC 6633; experiment: agar serial dilution test; assay type: cell-based, Bacillus subtilis; conditions: Bacillus subtilis, ATCC6633, 24 h, agar serial dilution, 24 hours, 37° C.; read-out: minimal inhibitory concentration (MIC)
[2] = test system: Staph.aureus A 321; experiment: agar serial dilution test; assay type: cell-based, Staphylococcus aureus; conditions: Staphylococcus aureus, A321, 24 h, agar serial dilution, 24 hours, 37° C.; read-out: minimal inhibitory concentration (MIC)
[3] = test system: Staph.aureus A 2000; experiment: agar serial dilution test; assay type: cell-based, Staphylococcus aureus; conditions: Staphylococcus aureus, A2000, 24 h, agar serial dilution, 24 hours, 37° C.; read-out: minimal inhibitory concentration (MIC)
[4] = test system: Staph.aureus A 2001; experiment: agar serial dilution test; assay type: cell-based, Staphylococcus aureus; conditions: Staphylococcus aureus, A2001, 24 h, agar serial dilution, 24 hours, 37° C.; read-out: minimal inhibitory concentration (MIC)
[5] = test system: Strep.haem. A 266; experiment: agar serial dilution test; assay type: cell-based, Streptococcus haemolyticus; conditions: Streptococcus; agar serial dilution, 24 hours, 37° C.; read-out: minimal inhibitory concentration (MIC)
[6] = test system: Strep. faec. L 80; experiment: agar serial dilution test; assay type: cell-based, Streptococcus faecalis; conditions: Enterococcus faecalis; agar serial dilution, 24 hours, 37° C.; read-out: minimal inhibitory concentration (MIC)
[7] = test system: Dipl.pneum. L 54; experiment: agar serial dilution test; assay type: cell-based, Diplococcus pneumoniae; conditions: Streptococcus pneumoniae; agar serial dilution, 24 hours, 37° C.; read-out: minimal inhibitory concentration (MIC)
[8] = test system: Past.multo. A 723; experiment: agar serial dilution test; assay type: cell-based, Pasteurella multocida; conditions: Pasteurella multocida; agar serial dilution, 24 hours, 37° C.; read-out: minimal inhibitory concentration (MIC)
[9] = test system: Kleb.pneum. A 809; experiment: agar serial dilution test; assay type: cell-based, Klebsiella pneumoniae; conditions: Klebsiella pneumoniae; agar serial dilution, 24 hours, 37° C.; read-out: minimal inhibitory concentration (MIC)
[10] = test system: Salm.dubl. P 43; experiment: agar serial dilution test; assay type: cell-based, Salmonella dublin; conditions: Salmonella enterica; agar serial dilution, 24 hours, 37° C.; read-out: minimal inhibitory concentration (MIC)
[11] = test system: Salm.typh. R 127; experiment: agar serial dilution test; assay type: cell-based; conditions: 24 h, 37° C., read-out: minimal inhibitory concentration (MIC)
[12] = test system: Esch.coli U 20; experiment: agar serial dilution test; assay type: cell-based, Escherichia coli; conditions: Escherichia coli, U20, 24 h, read-out: minimal inhibitory concentration (MIC), agar serial dilution, 24 hours, 37° C.
[13] = test system: Shig.equir. T 3; experiment: agar serial dilution test; assay type: cell-based; conditions: 37° C.
[14] = test system: Pseud.aerug. H 10; experiment: agar serial dilution test; assay type: cell-based; conditions: agar serial dilution, 24 hours, 37° C.; read-out: minimal inhibitory concentration (MIC)
[15] = test system: Pseud.aerug. 2396; experiment: agar serial dilution test; assay type: cell-based; conditions: agar serial dilution, 24 hours, 37° C.; read-out: minimal inhibitory concentration (MIC)
[16] = test system: Pseud.aerug. Wyeth A 1058; experiment: agar serial dilution test; assay type: cell-based; conditions: agar serial dilution, 24 hours, 37° C.; read-out: minimal inhibitory concentration (MIC)
[17] = test system: Prot.rettg. A 821; experiment: agar serial dilution test; assay type: cell-based, Proteus rettgeri; conditions: Providencia rettgeri, 24 h, read-out: minimal inhibitory concentration (MIC)
[18] = test system: Prot.mirab. H 3; experiment: agar serial dilution test; assay type: cell-based, Proteus mirabilis; conditions: Proteus mirabilis; agar serial dilution, 24 hours, 37° C.; read-out: minimal inhibitory concentration (MIC)
[19] = test system: Prot.mirab. L 93; experiment: agar serial dilution test; assay type: cell-based, Proteus mirabilis; conditions: Proteus mirabilis
[20] = test system: Prot.mirab. A 1200; experiment: agar serial dilution test; assay type: cell-based, Proteus mirabilis; conditions: agar serial dilution, 24 hours, 37° C.
[21] = test system: Prot.morg. 2241; experiment: agar serial dilution test; assay type: cell-based; conditions: 24 h, agar serial dilution, 24 hours, 37° C.; read-out: minimal inhibitory concentration (MIC)
[22] = test system: Staph.aureus A 355; experiment: micro serial dilution test; assay type: cell-based, Staphylococcus aureus; conditions: Staphylococcus aureus, A355; micro serial dilution (in brackets), about 18 hours, 30° C. or 37° C.; penicillinase-producing strain; read-out: minimal inhibitory concentration (MIC)
[23] = test system: Staph.aureus A 2000; experiment: micro serial dilution test; assay type: cell-based, Staphylococcus aureus; conditions: Staphylococcus aureus, A2000, 18 h, micro serial dilution (in brackets), about 18 hours, 30° C. or 37° C.; read-out: minimal inhibitory concentration (MIC)
[24] = test system: Staph.aureus A 2001; experiment: micro serial dilution test; assay type: cell-based, Staphylococcus aureus; conditions: Staphylococcus aureus, A2001, 18 h, micro serial dilution (in brackets), about 18 hours, 30° C. or 37° C.; read-out: minimal inhibitory concentration (MIC)
[25] = test system: penicillin resistant Staphylococcus aureus strain; experiment: protection test; assay type: in vivo; conditions: sc, protection test, subcutanal administration, read-out: ED50
Source text: The compound may preferably be used parenterally.

[26] = test system: Staph.aureus A 355; experiment: agar serial dilution test; conditions: Staphylococcus aureus, A355, 24 h, read-out: minimal inhibitory concentration (MIC), agar serial dilution, 24 hours, 37° C.; penicillinase-producing strain
[27] = tests with mice, blood levels and urine activity
[28] = stability in refluxing slightly moist diethyl ether (thin-layer chromatography); assay type: physicochemical; conditions: refluxed 24 hours, read-out: destruction to 5-methyl-1,2,4-oxadiazol-3-yl-acetic acid
Method: Stability of 1,2,4-oxadiazol-3,5-diyl-bisacetic acid: A small sample was dissolved in slightly moist diethyl ether and the solution was refluxed for 24 hours.

## COCc1noc(CC(=O)N[C@@H]2C(=O)N3C(C(=O)O)=C(COC(C)=O)CS[C@H]23)n1 [Example 37, 7-[3-methoxymethyl-1,2,4-oxadiazol-5-yl-acetamido]-cephalosporanic acid]
[1]
  MIC: 0.12 µg/mL (≈ 0.281 µM)
[2]
  MIC: 0.5 µg/mL (≈ 1.17 µM)
[3]
  MIC: 1.5 µg/mL (≈ 3.52 µM)
[4]
  MIC: 0.75 µg/mL (≈ 1.76 µM)
[5]
  MIC: 0.12 µg/mL (≈ 0.281 µM)
[6]
  MIC: 50 µg/mL (≈ 117 µM)
[7]
  MIC: 0.75 µg/mL (≈ 1.76 µM)
[8]
  MIC: 1 µg/mL (≈ 2.35 µM)
[9]
  MIC: 3 µg/mL (≈ 7.04 µM)
[10]
  MIC: 3 µg/mL (≈ 7.04 µM)
[11]
  MIC: 12.5 µg/mL (≈ 29.3 µM)
[12]
  MIC: 12.5 µg/mL (≈ 29.3 µM)
[13]; 24 h, read-out: minimal inhibitory concentration (MIC)
  MIC: 3 µg/mL (≈ 7.04 µM)
[13]; 24 hours
  minimal inhibitory concentration (MIC): 6 µg/mL (≈ 14.1 µM)
[14]
  MIC: > 100 µg/mL
[15]
  MIC: > 100 µg/mL
[16]
  MIC: > 100 µg/mL
[17]; agar serial dilution, 24 hours, 37° C.
  MIC: 3 µg/mL (≈ 7.04 µM)
[17]
  MIC: 12.5 µg/mL (≈ 29.3 µM)
[18]
  MIC: 25 µg/mL (≈ 58.6 µM)
[19]; 24 h, read-out: minimal inhibitory concentration (MIC), agar serial dilution, 24 hours, 37° C.
  MIC: 12.5 µg/mL (≈ 29.3 µM)
[19]; agar serial dilution, 24 hours, 37° C., read-out: minimal inhibitory concentration (MIC)
  MIC: 6 µg/mL (≈ 14.1 µM)
[20]; Proteus mirabilis, 24 h, read-out: minimal inhibitory concentration (MIC)
  MIC: 50 µg/mL (≈ 117 µM)
[20]
  minimal inhibitory concentration (MIC): 100 µg/mL (≈ 235 µM)
[21]
  MIC: > 100 µg/mL
[22]
  MIC: 0.9 µg/mL (≈ 2.11 µM)
[23]
  MIC: 0.6 µg/mL (≈ 1.41 µM)
[24]
  MIC: 0.45 µg/mL (≈ 1.06 µM)
[25]
  ED50: 1.2 mg/kg
[26]
  MIC: 1.5 µg/mL (≈ 3.52 µM)
[27]
  blood levels (in words): good blood levels
  urine activity against pathogenic germs (in words): strong urine activity against pathogenic germs

## O=C(O)Cc1noc(CC(=O)O)n1 [Example 39, 1,2,4-oxadiazole-3,5-diyl-bisacetic acid]
[28]
  degraded at 24 h: < 5%
